Consider six compounds from paper PMC6891695, “Evaluation of Antifouling Potential and Ecotoxicity of Secondary Metabolites Derived from Red Algae of the Genus Laurencia” (Marine Drugs, 2019).

Like-named read-outs stand apart in the source and are kept apart here.

One series can be described thus: in vivo. The format is in vivo. Particulars: Amphibalanus amphitrite, in vivo, read-out: LC50 Mortality; for LC50 at 24 h: 24 h exposure; for LC50 at 48 h: 48 h exposure; for LC50 at 72 h: 72 h exposure. The procedure: (§1) Adult A. amphitrite (Cirripedia, Balanidae) were collected from boat docks at Port Mikrolimano and Floisvos, Athens, Greece. Animals were cleaned of epibionts with a small hard brush and meticulously identified as individuals of the species. Adult barnacles were kept in separate aerated glass tanks (20 L) containing 200-μm filtered natural seawater at 27 °C and a 12:12 L:D photoperiod. Tanks were fed with 24-h hatched Artemia sp. (Branchiopoda) nauplii and Tetraselmis suecica (Chlorodendrophyceae) and Skeletonema costatum (Bacillariophyceae) algae each day and seawater was changed on alternate days. Upon stress to induce oviposition (exposure to air for 24 h or immersion in fresh water for 5 h), adults were returned to seawater for larval release. Hatched nauplii were attracted to a point light source, collected and placed into a beaker containing 2 or 3 L of 0.7 μm GF/F (GE Healthcare, Little Chalfont, UK )-filtered natural seawater at a density of approximately 1–2 nauplii/mL with gentle aeration. Nauplii were maintained at 27 °C at a 12:12 L:D photoperiod on a diet of C. gracilis (Bacillariophyceae) provided at a density of 2 × 10^5 cells/mL. Cultured in these conditions, nauplii metamorphosed to cyprids in 5 days. Aliquots of these cyprids were collected with a wide-mouthed Pasteur pipette and aged at 4 °C for 1 day prior to use in settlement assays. Only batches of cyprids that were active and had numerous oil cells, representing energy reserves, were used in settlement assays.
(§2) Assays were conducted by adding 10 cyprids into individual wells of a 24-well polystyrene sterile microplate (Orange Scientific, Braine l’Alleud, Belgium) with 2 mL of artificial sea water (ASW) (25‰) and various concentrations of the chemical compounds as listed in Table 1. These experiments were repeated at least three times with four replicates for each concentration of any given compound (n = 120 cyprids/compound). Stock solutions for all compounds were prepared in methanol (Scharlab, Barcelona, Spain) and serial dilutions were prepared in 0.7 μm (GF/F, GE Healthcare, Little Chalfont, UK), filtered sea water to have a final concentration of 2.5% methanol in each assay solution. Plates were covered and sealed with Parafilm® to avoid evaporation and incubated at 25 °C away from any light source and examined after 24, 48 and 72 h. Each animal was inspected under a stereomicroscope and its condition was recorded. […] Both permanently attached and metamorphosed individuals were counted as settled or juveniles. The remainder were counted as ‘no metamorphosis’, i.e. animals that responded to light touch and were still cyprids at the end of the experiments with no overt signs of metamorphosis.
(§3) For EC50 or IC50 (the concentration that results in 50% stimulation or inhibition relative to the control) calculations in GraphPad Prism v.6, all data were fitted to the curve according to the following models for normalized response: Y = 100/(1 + 10^((X − LogIC50))) or Y = 100/(1 + 10^((LogEC50 − X))) depending on the trend of the curve.

The next series deals with cyprids of A. amphitrite. Put plainly: whole plant or invertebrate. Particulars: for EC50 / IC50: Amphibalanus amphitrite; for EC50: read-out: EC50 No Metamorphosis; for IC50: read-out: IC50 Settlement; for EC50 values for settlement inhibition of barnacle cyprids (in words): consistently, 24-72 h. Format: in vivo. The procedure:
as §1, §2, §3

The nature of series [1]: Artemia salina toxicity assay. The format is in vivo. The note with it: Artemia salina, in vivo, read-out: EC50 Artemia salina toxicity (mortality). The procedure:
(§4) The short-term toxicity assay with A. salina nauplii was used to determine the toxicity of secondary metabolites. Hatching of A. salina nauplii was carried out in ASW (35‰) using 0.5 g of cysts incubated in 500 mL seawater at a temperature of 25 ± 1 °C and lateral illumination (1000 Lux). All cysts were kept in continuous suspension with aeration and 24 h later hatched larvae (instar I) were harvested. Toxicity assays were carried out in three independent experiments in 24-well plates with four replicates of each tested concentration. Ten nauplii per well were transferred with a Pasteur pipette into the 24-well plates and each well was filled with 2 mL of ASW and 50 μL of various concentrations of the tested compounds in methanol. Control treatments received 50 μL of methanol. Plates were incubated in the dark at 25 ± 1 °C for 48 h. Mortality was assessed by recording the number of individuals with no movement of their appendages within 10 seconds and is expressed as the percentage of the total number of assessed individuals for each concentration.
as §3

A further series has as its system A. salina nauplii. Put plainly: Artemia salina toxicity assay. The format is in vivo. The note with it: in vivo. The procedure:
as §4, §3

For another series, the system named is Chaetoceros gracilis. Put plainly: Chaetoceros gracilis toxicity (phytoplankton growth) assay. The format is cell-based. The note with it: 96 h; for EC50: Chaetoceros neogracilis. The procedure:
For phytoplankton growth toxicity assays, the criterion for assay validity was that the cell count of the negative control after 96 h should be ≥2 × 10^5 cells/mL [40].
The centric marine diatom C. gracilis Schütt (strain CCMP1315) was grown photoautotrophically in autoclaved artificial seawater (sea salts; Sigma-Aldrich, St. Louis, MO, USA) (30‰) supplemented with F/2 (half-strength medium f as subsequently modified) in 100 mL medium at 20 °C and with ambient air bubbled in the media. By monitoring cell density, an adjusted culture of >1 × 10^6 cells/mL was used for the toxicity assays. At 96 h, a 0.9 mL aliquot of each treatment was sampled, mixed with 0.1 mL Lugol and cell density was counted. Experiments were assumed valid if cell count in the control after 96 h was […].
as §3

For series [2], the system named is five strains of marine bacteria. Put plainly: Marine bacteria growth assay, positive control (strain not specified). Format: cell-based. The note with it: 40 μL of 0.5 M per disc. The procedure: The ability of selected metabolites to inhibit the growth of bacteria was assessed using five strains of marine bacteria involved in marine surface biofilm formation, namely, B. subtilis, B. mojavensis, B. thuringiensis, P. putita and P. pseudoalcaligenes. Bacterial strains were maintained on Zobel marine agar plates. Sterile filter paper discs (4 mm) (GF/F; GE Healthcare, Little Chalfont, UK) were loaded with 40 μL samples of serial dilutions of each tested metabolite, allowed to dry at room temperature and then placed on agar plates (Zobel marine agar, pH = 7.3), which were seeded with a single strain of bacteria. Plates were incubated for 24 h at 25 °C. Marine bacteria growth inhibition was determined by measuring the zone of inhibition in mm around the filter paper disc. As a positive and negative control, standard discs were loaded with 40 μL of 0.5 M penicillin G (2 to 10 mm diameter) or solvent (40 μL methanol), respectively.

On to `Cc1ccc(C2(C)CCC(=CBr)C2C)c(O)c1` (centres unmarked) [Compound 4, iso-laurenisol], for which, in “in vivo”, the LC50 at 24 h amounted to 3550 nM, the LC50 at 48 h was found to be 2980 nM and the LC50 at 72 h came out at 2800 nM. Also, in the series on cyprids of A. amphitrite (24 h), the EC50 was 10400 nM and the IC50 came to 120 nM. In addition, in the series with cyprids of A. amphitrite (48 h), the EC50 is 12400 nM and the IC50 was 180 nM. Moreover, in the series on cyprids of A. amphitrite (72 h), the EC50 was found to be 5850 nM and the half-inhibitory concentration (IC50) was determined as 340 nM. Further, the “EC50 values for settlement inhibition of barnacle cyprids (in words)” value (shortened to “EC50 values for settlement inhibition”) with cyprids of A. amphitrite is recorded as “sub-micromolar”. In series [1], the LC50 at 24 h turned out to be 21100 nM and the LC50 at 48 h was determined as 739 nM. Moreover, the “A. salina exclusion criterion (>10-fold change in EC50 between 24 h and 48 h)” value in the series on A. salina nauplii was “did not pass this criterion”.

As to `CC1(C(Br)CO)CC=C2C(C1)C(O)CC1C2(C)CCC(Br)C1(C)C` (centres unmarked) [Compound 14, 3,15-dibromo-7,16-dihydroxy-isopimar-9(11)-ene], in “in vivo”, the LC50 at 24 h came out at 1960 nM, the LC50 at 48 h amounted to 3610 nM and the LC50 at 72 h was found to be 3540 nM. In addition, in the series on cyprids of A. amphitrite (24 h), the EC50 worked out at 6420 nM and the IC50 was determined as 11 nM. Besides, in the series on cyprids of A. amphitrite (48 h), the EC50 is 5150 nM and the IC50 was 65 nM. In the series with cyprids of A. amphitrite (72 h), the EC50 came to 7720 nM and the IC50 is 28 nM. In addition, in the series with cyprids of A. amphitrite, the “EC50 values for settlement inhibition” value is reported as “sub-micromolar”. For the same compound, in series [1], the LC50 at 24 h was determined as 34200 nM and the LC50 at 48 h came to 15100 nM. For the same compound, in the series with Chaetoceros gracilis, the “C. gracilis exclusion criterion (EC50 compared with bromosphaerol)” value was “did not pass this criterion” and the EC50 amounted to 1610 nM.

For `C=C1C[C@H](O)[C@H](Br)C(C)(C)[C@@]12CCC(C)=C(Cl)C2` [Compound 12, elatol], in the series “in vivo”, the LC50 at 24 h worked out at 327 nM, the LC50 at 48 h stood at 194 nM and the LC50 at 72 h was found to be 61 nM. Moreover, in the series on cyprids of A. amphitrite (24 h), the EC50 is 396 nM and the IC50 is 89 nM. In the series on cyprids of A. amphitrite (48 h), the EC50 is 250 nM and the IC50 was found to be 73 nM. Also, in the series on cyprids of A. amphitrite (72 h), the EC50 was 66 nM and the IC50 is 42 nM. In the series with cyprids of A. amphitrite, the “EC50 values for settlement inhibition” value is “sub-micromolar”. For the same compound, in the series on cyprids of A. amphitrite (in vivo), the “toxic effect on cyprids” value is recorded as “obvious toxic effect on cyprids”. In series [1], the LC50 at 24 h turned out to be 6590 nM and the LC50 at 48 h was 373 nM. The “A. salina exclusion criterion (>10-fold change in EC50 between 24 h and 48 h)” value with A. salina nauplii was “did not pass this criterion”.

Regarding `CC1(C)S[C@@H]2[C@H](NC(=O)Cc3ccccc3)C(=O)N2[C@H]1C(=O)O` [penicillin G], the “zone of inhibition (diameter)” value in series [2] lay within 2 to 10 mm.

As to `CC1C(Br)C(=O)C(C)C23CCC2(C)C(Br)CC13C` (centres unmarked) [Compound 11, perforatone], the LC50 at 24 h turned out to be 56100 nM in “in vivo” and 10000 nM in series [1]. Further, the values for the LC50 at 48 h (in “in vivo”; in series [1]) were 38400 nM and 1570 nM, respectively. The EC50 was 3 nM with cyprids of A. amphitrite (24 h), 2 nM in the series on cyprids of A. amphitrite (48 h) and 4520 nM with Chaetoceros gracilis. In addition, the IC50 is 3 nM in the series with cyprids of A. amphitrite (24 h), 2 nM in the series with cyprids of A. amphitrite (48 h) and 2 nM in the series with cyprids of A. amphitrite (72 h). Also, the “EC50 values for settlement inhibition” value in the series on cyprids of A. amphitrite is recorded as “sub-micromolar”. In the series on Chaetoceros gracilis, the “C. gracilis exclusion criterion (EC50 compared with bromosphaerol)” value is given as “did not pass this criterion”.

As for `C#CC=CCC1OC(C(Br)CC)CC(OC(C)=O)C(Cl)CC1Cl` (centres unmarked) [Compound 22, laurencienyne], the figures for the LC50 at 24 h (in the series “in vivo”; in series [1]) were 6860 nM and 3070 nM, respectively. Moreover, the results for the LC50 at 48 h (in “in vivo”; in series [1]) were 10100 nM and 9630 nM, respectively. The LC50 at 72 h in the series “in vivo” stood at 71300 nM. In addition, the EC50 worked out at 8 nM in the series on cyprids of A. amphitrite (24 h), 10 nM in the series with cyprids of A. amphitrite (48 h), 58700 nM with cyprids of A. amphitrite (72 h) and 2150 nM in the series with Chaetoceros gracilis. The concentration for half-maximal inhibition (IC50) in the series with cyprids of A. amphitrite (24 h) worked out at 25 nM; in the series on cyprids of A. amphitrite (48 h), 43 nM; in the series on cyprids of A. amphitrite (72 h), 55 nM. Also, the “EC50 values for settlement inhibition” value in the series with cyprids of A. amphitrite was “sub-micromolar”. In the series on Chaetoceros gracilis, the “C. gracilis exclusion criterion (EC50 compared with bromosphaerol)” value was “did not pass this criterion”.
